Laboratory results as given in patent US11090319B2, “Therapeutic uses of pharmaceutical compositions comprising cyclic boronic acid ester derivatives” (Melinta Subsidiary Corp., priority 2010, dated 2021).
Like-named read-outs stand apart in the source and are kept apart here.

Experiments:
[1] = biological target: various β-lactamases (bacterial lysates) (Klebsiella pneumoniae, UniProt Q9F663, H272Y); test: biochemical; type: biochemical
[2] = biological target: various β-lactamases (bacterial lysates) (Escherichia coli, UniProt A0A5R8T042); test: biochemical; type: biochemical; conditions: read-out: AZT IC50 KP1009 CTX-M-15
[3] = biological target: various β-lactamases (bacterial lysates) (Salmonella typhimurium, UniProt P0A1V8); test: biochemical; type: biochemical; conditions: AZT IC50 KPX1001 OXA-2
[4] = biological target: various β-lactamases (bacterial lysates) (Escherichia coli, UniProt A0A649V088); test: biochemical; type: biochemical; conditions: read-out: AZT IC50 KP1005 CTX-M-14
[5] = biological target: various β-lactamases (bacterial lysates) (Klebsiella pneumoniae, UniProt Q9F663); test: biochemical; type: biochemical; conditions: aztreonam cleavage
[6] = biological target: various β-lactamases (bacterial lysates) (Pseudomonas aeruginosa, UniProt P14489); test: biochemical; type: biochemical; conditions: AZT IC50 KP1007 OXA-10
[7] = test system: strains expressing class A ESBLs; type: cell-based; conditions: tigemonam at 4 μg/mL
Description: Selected β-lactamase inhibitors were also tested for their ability to potentiate the monobactam tigemonam.

[8] = lysate KP1004 KPC-2, read-out: AZT IC50 KP1004 KPC-2 (converted)
[9] = lysate KP1008 KPC-2, read-out: AZT IC50 KP1008 KPC-2

Sequence of various β-lactamases (bacterial lysates) (Escherichia coli, UniProt A0A5R8T042) (A0A5R8T042 29-291): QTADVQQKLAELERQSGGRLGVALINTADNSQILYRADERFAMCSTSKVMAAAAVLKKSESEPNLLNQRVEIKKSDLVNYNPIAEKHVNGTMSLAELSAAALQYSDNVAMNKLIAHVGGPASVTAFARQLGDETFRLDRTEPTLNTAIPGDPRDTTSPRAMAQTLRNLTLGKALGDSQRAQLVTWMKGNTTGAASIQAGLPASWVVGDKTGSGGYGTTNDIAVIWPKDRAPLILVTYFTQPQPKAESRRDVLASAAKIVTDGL
Sequence of various β-lactamases (bacterial lysates) (Pseudomonas aeruginosa, UniProt P14489) (P14489 20-266): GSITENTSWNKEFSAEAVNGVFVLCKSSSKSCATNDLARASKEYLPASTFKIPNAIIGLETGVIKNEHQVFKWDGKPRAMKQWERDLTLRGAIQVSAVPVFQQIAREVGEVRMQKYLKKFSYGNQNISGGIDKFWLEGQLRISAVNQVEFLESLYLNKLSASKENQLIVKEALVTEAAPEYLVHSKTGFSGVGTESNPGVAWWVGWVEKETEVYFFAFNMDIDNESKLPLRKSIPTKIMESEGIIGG
Sequence of various β-lactamases (bacterial lysates) (Salmonella typhimurium, UniProt P0A1V8) (P0A1V8 22-275): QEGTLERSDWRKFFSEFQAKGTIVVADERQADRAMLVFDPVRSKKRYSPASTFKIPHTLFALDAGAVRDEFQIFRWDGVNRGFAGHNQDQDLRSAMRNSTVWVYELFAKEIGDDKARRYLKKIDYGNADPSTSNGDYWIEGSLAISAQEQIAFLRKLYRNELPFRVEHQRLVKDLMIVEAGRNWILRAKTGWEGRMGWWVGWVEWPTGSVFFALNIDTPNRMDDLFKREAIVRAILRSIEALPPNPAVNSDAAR
Sequence of various β-lactamases (bacterial lysates) (Klebsiella pneumoniae, UniProt Q9F663) (Q9F663 whole entry, looked up): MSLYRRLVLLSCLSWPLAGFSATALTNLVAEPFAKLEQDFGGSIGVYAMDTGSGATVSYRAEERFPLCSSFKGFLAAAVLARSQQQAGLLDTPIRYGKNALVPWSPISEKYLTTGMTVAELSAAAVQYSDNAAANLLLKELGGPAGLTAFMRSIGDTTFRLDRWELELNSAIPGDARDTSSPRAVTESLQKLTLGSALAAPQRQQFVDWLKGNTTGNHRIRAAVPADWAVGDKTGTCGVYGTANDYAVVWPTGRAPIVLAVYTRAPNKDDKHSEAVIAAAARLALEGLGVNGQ
Sequence of various β-lactamases (bacterial lysates) (Escherichia coli, UniProt A0A649V088) (A0A649V088 29-291): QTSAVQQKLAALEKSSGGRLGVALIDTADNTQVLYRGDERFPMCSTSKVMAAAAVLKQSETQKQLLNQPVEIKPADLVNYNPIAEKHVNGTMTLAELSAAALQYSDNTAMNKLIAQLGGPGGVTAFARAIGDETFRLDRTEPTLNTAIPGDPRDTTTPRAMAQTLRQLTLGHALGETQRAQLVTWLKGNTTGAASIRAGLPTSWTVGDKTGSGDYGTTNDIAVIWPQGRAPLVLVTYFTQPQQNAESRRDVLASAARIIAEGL
Sequence of various β-lactamases (bacterial lysates) (Klebsiella pneumoniae, UniProt Q9F663, H272Y) (Q9F663 whole entry H272Y, looked up): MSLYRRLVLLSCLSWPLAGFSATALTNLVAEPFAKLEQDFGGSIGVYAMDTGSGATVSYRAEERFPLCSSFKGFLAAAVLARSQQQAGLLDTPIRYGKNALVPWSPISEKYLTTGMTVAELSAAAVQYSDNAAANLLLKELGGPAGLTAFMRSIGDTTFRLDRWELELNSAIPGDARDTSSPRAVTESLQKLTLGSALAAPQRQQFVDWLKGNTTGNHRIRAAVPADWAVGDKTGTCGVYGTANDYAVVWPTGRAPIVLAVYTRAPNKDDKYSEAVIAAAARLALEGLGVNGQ

Compound | IC50 [1] | IC50 [2] | IC50 [3] | IC50 [4] | IC50 [5, 8] | IC50 [5, 9] | IC50 [6] | MPC4 TEM-10 EC1009 ([7]; strain EC1009 TEM-10) | MPC4 CTX-M-14 KP1005 ([7]; strain KP1005 CTX-M-14) | MPC4 CTX-M-15 KP1009 ([7]; strain KP1009 CTX-M-15) | MPC4 SHV-12 KP1010 ([7]; strain KP1010 SHV-12) | MPC4 SHV-18 KP1012 ([7]; strain KP1012 SHV-18) | MPC4 TEM-10 ec302 ([7]; strain ec302 TEM-10) | MPC4 TEM-26 ec304 ([7]; strain ec304 TEM-26) | MPC4 SHV-5 ec308 ([7]; strain ec308 SHV-5)
N[C@H](C(=O)N[C@H]1CC[C@@H](CC(=O)O)OB1O)c1ccccc1 [Compound 33, 2-((3R,6S)-3-((S)-2-amino-2-phenylacetamido)-2-hydroxy-1,2-oxaborinan-6-yl)acetic acid] | < 1.63 µM | > 6.53 µM | 1.63 to 6.53 µM | < 1.63 µM | 1.63 to 6.53 µM | 1.63 to 6.53 µM | > 6.53 µM | – | – | – | – | – | – | – | –
NCCC(=O)N[C@H]1CC[C@@H](CC(=O)O)OB1O [Compound 34, 2-((3R,6S)-3-(3-aminopropanamido)-2-hydroxy-1,2-oxaborinan-6-yl)acetic acid] | < 2.05 µM | > 8.19 µM | > 8.19 µM | > 8.19 µM | 2.05 to 8.19 µM | 2.05 to 8.19 µM | > 8.19 µM | – | – | – | – | – | – | – | –
N[C@@H](CCC(=O)N[C@H]1CC[C@@H](CC(=O)O)OB1O)C(=O)O [Compound 35, (S)-2-amino-5-((3R,6S)-6-(carboxymethyl)-2-hydroxy-1,2-oxaborinan-3-ylamino)-5-oxopentanoic acid] | < 1.66 µM | > 6.62 µM | > 6.62 µM | > 6.62 µM | > 6.62 µM | > 6.62 µM | > 6.62 µM | – | – | – | – | – | – | – | –
O=C(O)C[C@@H]1CC[C@H](NC(=O)CCc2ccccc2)B(O)O1 [Compound 38, 2-((3R,6S)-2-hydroxy-3-(3-phenylpropanamido)-1,2-oxaborinan-6-yl)acetic acid] | < 1.64 µM | 1.64 to 6.55 µM | 1.64 to 6.55 µM | < 1.64 µM | < 1.64 µM | < 1.64 µM | > 6.55 µM | – | – | – | – | – | – | – | –
CSCCC(N)C(=O)N[C@H]1CC[C@@H](CC(=O)O)OB1O (stereo partly drawn) [Compound 41, 2-((3R,6S)-3-(2-amino-4-(methylthio)butanamido)-2-hydroxy-1,2-oxaborinan-6-yl)acetic acid] | < 1.64 µM | > 6.58 µM | > 6.58 µM | > 6.58 µM | < 1.64 µM | < 1.64 µM | > 6.58 µM | – | – | – | – | – | – | – | –
NC(Cc1cccnc1)C(=O)N[C@H]1CC[C@@H](CC(=O)O)OB1O (stereo partly drawn) [Compound 42, 2-((3R,6S)-3-(2-amino-3-(pyridin-3-yl)propanamido)-2-hydroxy-1,2-oxaborinan-6-yl)acetic acid] | < 1.56 µM | > 6.23 µM | > 6.23 µM | > 6.23 µM | < 1.56 µM | < 1.56 µM | > 6.23 µM | – | – | – | – | – | – | – | –
O=C(O)C[C@@H]1CC[C@H](NC(=O)Cc2cccnc2)B(O)O1 [Compound 43, 2-((3R,6S)-2-hydroxy-3-(2-(pyridin-3-yl)acetamido)-1,2-oxaborinan-6-yl)acetic acid] | < 1.71 µM | > 6.85 µM | 1.71 to 6.85 µM | 1.71 to 6.85 µM | < 1.71 µM | < 1.71 µM | > 6.85 µM | – | – | – | – | – | – | – | –
O=C(O)C[C@@H]1CC[C@H](NC(=O)[C@@H]2CCCCN2)B(O)O1 [Compound 45, 2-((3R,6S)-2-hydroxy-3-((S)-piperidine-2-carboxamido)-1,2-oxaborinan-6-yl)acetic acid] | < 1.76 µM | > 7.04 µM | > 7.04 µM | > 7.04 µM | 1.76 to 7.04 µM | 1.76 to 7.04 µM | > 7.04 µM | – | – | – | – | – | – | – | –
O=C(O)C[C@H]1C=CC[C@H](NC(=O)Cc2cccs2)B(O)O1 [Compound 68, 2-((3R,7S)-2-hydroxy-3-(2-(thiophen-2-yl)acetamido)-2,3,4,7-tetrahydro-1,2-oxaborepin-7-yl)acetic acid] | – | – | – | – | – | – | – | Y (MPC@4 of 2 μg/mL to 10 μg/mL) | Y (MPC@4 of 2 μg/mL to 10 μg/mL) | Y (MPC@4 of 2 μg/mL to 10 μg/mL) | X (MPC@4 of less than 2 μg/mL) | X (MPC@4 of less than 2 μg/mL) | Y (MPC@4 of 2 μg/mL to 10 μg/mL) | Y (MPC@4 of 2 μg/mL to 10 μg/mL) | Y (MPC@4 of 2 μg/mL to 10 μg/mL)
